The subject of one assay is HeLa galactose cells. The assay can be described thus: Cell growth and proliferation assay of HeLa galactose cells (crystal violet). Format: cell-based. The conditions noted are these: Homo sapiens, HeLa, 72 h, 72 hours incubation, crystal violet staining, absorbance at 590 nm. The method, then:
The cervical tumor cell line HeLa (ATCC, CCL-2) was cultivated in DMEM medium (Invitrogen cat. no. 11971, 4.5 g/L high glucose) containing 10% fetal calf serum (Sigma cat. no. F9665) and 1% Penicillin/Streptomycin (Sigma cat. no. P0781) at 37° C. in 5% CO2. HeLa galactose cells (i.e. HeLa cells that grow in high concentrations of galactose) were generated from HeLa glucose cells (i.e. HeLa cells that grow in high concentrations of glucose) by gradually changing the amount of glucose in the media to zero glucose in the presence of galactose as a sugar source (50% galactose/50% glucose media for one week, then 75% galactose/25% glucose media for one week, to 100% galactose media in the third week). Galactose media (Invitrogen cat. no. 11966) was supplemented with 10 mM galactose (Sigma cat. no. G5388).
Cell Growth and Proliferation Assay of HeLa Galactose and Glucose Cells
HeLa galactose cells and HeLa glucose cells were seeded in 96 well plates (TPP, cat. no 92696) at 2000 and 1500 cells/well, respectively, in 100 μL of complete medium. After overnight incubation the cells were incubated for 72 hours in complete medium containing 0.001% DMSO or compounds (final concentration of DMSO 0.001%). After the medium was removed, cells were fixed and stained by adding 50 μL crystal violet staining (0.2% crystal violet (Sigma-Aldrich cat. no. C0775) in 50% methanol) per well. The plates were incubated for 1 hour at room temperature. Subsequently the stain was decanted and plates were washed 4 times with de-mineralized water. Plates were air-dried for 2 hours. The stain was dissolved by adding 100 μL buffer (0.1 M Tris pH 7.5, 0.2% SDS, 20% ethanol) per well and shaking the plates. Absorbance at 590 nm was measured using a SpectraMax® 250 plate reader (Molecular Devices). Antiproliferative/growth inhibition IC50s were calculated from concentration-response curves using GraphPad Prism software.

In assay [1] the test system is Oxygen consumption (mitochondrial function). The assay can be described thus: Oxygen consumption assay (MitoXpress probe). The conditions noted are these: MitoXpress probe signal, kinetic analysis at 37° C. for 5 hours, compared to untreated cells. Format: cell-based. An excerpt:
Oxygen consumption is one of the most informative and direct measures of mitochondrial function and can be measured, for example, by using the MitoXpress® assay (Luxcel MX-2001, Luxcel Biosciences). The MitoXpress® probe is one of a family of phosphorescent oxygen sensitive probes. The assay exploits the ability of oxygen to quench the excited state of the MitoXpress® probe. As the test material respires (i.e. the cells), oxygen is depleted in the surrounding solution/environment, which increases the probe phosphorescence signal. Changes in oxygen consumption reflecting changes in mitochondrial activity are seen as changes in the MitoXpress® probe signal over time.
Cells were seeded in 96 well black plates with transparent bottoms (Greiner Bio-One cat. no. 655090) at a density of 50′000 cells/well in a final volume of 100 μL. After 24 hours the incubation media was removed and 150 μL of fresh media containing inhibitors at different concentrations was added to each well. Then, 10 μL of MitoXpress® and 150 μL mineral oil were added per well. Reading from the top of the plate, kinetic analysis was performed at 37° C. for 5 hours using a Synergy 4 plate reader (BioTek) and Time-resolved Fluoresence (TRF) wavelengths of 380/11 nm excitation and 650/20 nm emission or 665/40 emission (30 microsecond delay time, 100 microsecond integration time, gain or sensitivity settings set at either medium or high). IC50s were calculated as the concentration that inhibits 50% of the phosphorescent oxygen sensitive probe signal (MitoXpress®) as compared to untreated cells.

As usually defined, the IC50 is the concentration at which inhibition is half-maximal. As for `Cc1nsc(NC(=O)N2CCC(Cc3ccc(-c4noc(C)n4)cc3F)CC2)n1` [Example 35, 4-[[2-fluoro-4-(5-methyl-1,2,4-oxadiazol-3-yl)phenyl]methyl]-N-(3-methyl-1,2,4-thiadiazol-5-yl)piperidine-1-carboxamide], the IC50 in the assay on HeLa galactose cells stood at 240 nM; in assay [1] (5 h), 473 nM.

Regarding `Cc1nsc(NC(=O)N2CCCC(Cc3ccc(C(F)(F)F)cc3F)CC2)n1` (stereo not shown) [Example 120, 4-[[2-fluoro-4-(trifluoromethyl)phenyl]methyl]-N-(3-methyl-1,2,4-thiadiazol-5-yl)azepane-1-carboxamide], the values for the IC50 (in the assay on HeLa galactose cells; in assay [1] (5 h)) were 32 nM and 54 nM, respectively.

`Cc1nsc(NC(=O)N2CCC(=Cc3ccc(NCCN)cc3F)CC2)n1` [Example 101, 4-[[4-(2-aminoethylamino)-2-fluoro-phenyl]methylene]-N-(3-methyl-1,2,4-thiadiazol-5-yl)piperidine-1-carboxamide]: the IC50 in the assay with HeLa galactose cells worked out at 251 nM; in assay [1] (5 h), 412 nM.

Consider `Cc1nsc(NC(=O)N2CCC(Cc3c(F)cc(N(C)C)cc3F)CC2)n1` [Example 113, 4-[[4-(dimethylamino)-2,6-difluoro-phenyl]methyl]-N-(3-methyl-1,2,4-thiadiazol-5-yl)piperidine-1-carboxamide], for which the IC50 in the assay with HeLa galactose cells came out at 35 nM; in assay [1] (5 h), 52 nM.

Take `COCc1ccc(CC2CCN(C(=O)Nc3nc(C)ns3)CC2)cc1` [Example 6]: the IC50 in the assay with HeLa galactose cells stood at 31 nM; in assay [1] (5 h) it was 200 nM.

With `COc1cc(F)c(C=C2CCN(C(=O)Nc3nc(C)ns3)CC2)c(F)c1` [Example 97, 4-[(2,6-difluoro-4-methoxy-phenyl)methylene]-N-(3-methyl-1,2,4-thiadiazol-5-yl)piperidine-1-carboxamide], the IC50 in the assay with HeLa galactose cells worked out at 28 nM; in assay [1] (5 h), 30 nM.

Turning to `O=C(Nc1nc(CCO)ns1)N1CCC(=Cc2ccc(Cl)cc2F)CC1` [Example 78, 4-[(4-chloro-2-fluoro-phenyl)methylene]-N-[3-(2-hydroxyethyl)-1,2,4-thiadiazol-5-yl]piperidine-1-carboxamide], the IC50 was 163 nM with HeLa galactose cells and 267 nM in assay [1] (5 h).

Take `Cc1nsc(NC(=O)N2CCC(C(=O)c3ccc(Cl)cc3)CC2)n1` [Example 74, 4-(4-chlorobenzoyl)-N-(3-methyl-1,2,4-thiadiazol-5-yl)piperidine-1-carboxamide]: the figures for the IC50 (in the assay with HeLa galactose cells; in assay [1] (5 h)) were 34 nM and 51 nM, respectively.

Take `Cc1nsc(NC(=O)N2CCC(Cc3ccc(OC(F)(F)F)cc3F)CC2)n1` [Example 55]: the IC50 in the assay with HeLa galactose cells was 202 nM; in assay [1] (5 h) it was 383 nM.

Regarding `N#CCCc1nsc(NC(=O)N2CCC(=Cc3ccc(Cl)cc3F)CC2)n1` [Example 80, 4-[(4-chloro-2-fluoro-phenyl)methylene]-N-[3-(2-cyanoethyl)-1,2,4-thiadiazol-5-yl]piperidine-1-carboxamide], the IC50 in the assay with HeLa galactose cells stood at 134 nM; in assay [1] (5 h) it was 108 nM.

`Cc1nsc(NC(=O)N2CCC(=Cc3c(F)cc(Cl)cc3F)CC2)n1` [Example 26, 4-[(4-chloro-2,6-difluoro-phenyl)methylene]-N-(3-methyl-1,2,4-thiadiazol-5-yl)piperidine-1-carboxamide]: the IC50 in the assay on HeLa galactose cells stood at 15 nM; in assay [1] (5 h), 23 nM.

Turning to `Cc1nsc(NC(=O)N2CCC(=Cc3ccc(Cl)cc3F)CC2)n1` [Example 39, 4-[(4-chloro-2-fluoro-phenyl)methylene]-N-(3-methyl-1,2,4-thiadiazol-5-yl)piperidine-1-carboxamide], the IC50 in the assay on HeLa galactose cells was 38 nM; in assay [1] (5 h), 69 nM.

In the case of `Cc1cc(NC(=O)N2CCC(=Cc3c(F)cc(N(C)C)cc3F)CC2)sn1` [Example 148, 4-[[4-(dimethylamino)-2,6-difluoro-phenyl]methylene]-N-(3-methylisothiazol-5-yl)piperidine-1-carboxamide], the IC50 in the assay on HeLa galactose cells was found to be 9 nM; in assay [1] (5 h) it was 16 nM.

Take `Cc1nccc(NC(=O)N2CCC(Cc3ccc(Cl)cc3F)CC2)n1` [Example 71]: the IC50 in the assay with HeLa galactose cells was 227 nM; in assay [1] (5 h), 338 nM.

Consider `Cc1cc(NC(=O)N2CCC(Cc3c(F)cc(Cl)cc3F)CC2)ccn1` [Example 145], for which the values for the IC50 (in the assay on HeLa galactose cells; in assay [1] (5 h)) were 15 nM and 106 nM, respectively.

As for `Cc1cc(NC(=O)N2CCC(=Cc3ccc(Cl)cc3F)CC2)ccn1` [Example 128], the IC50 was determined as 33 nM in the assay with HeLa galactose cells and 168 nM in assay [1] (5 h).

Turning to `Cc1nsc(NC(=O)N2CCC(C(=O)c3ccc(F)cc3F)CC2)n1` [Example 75, 4-(2,4-difluorobenzoyl)-N-(3-methyl-1,2,4-thiadiazol-5-yl)piperidine-1-carboxamide], the IC50 in the assay on HeLa galactose cells was found to be 54 nM; in assay [1] (5 h) it was 59 nM.

Consider `Cc1cc(NC(=O)N2CCC(Cc3c(F)cc(N(C)C)cc3F)CC2)ccn1` [Example 153], for which the IC50 worked out at 34 nM in the assay on HeLa galactose cells and 119 nM in assay [1] (5 h).

For `Cc1nsc(NC(=O)N2CCCC(=Cc3c(F)cc(Cl)cc3F)CC2)n1` [Example 114], the IC50 worked out at 19 nM in the assay on HeLa galactose cells and 65 nM in assay [1] (5 h).

With `Cc1nsc(NC(=O)N2CCCC(Cc3ccc(Cl)cc3F)CC2)n1` (stereo not shown) [Example 49, 4-[(4-chloro-2-fluoro-phenyl)methyl]-N-(3-methyl-1,2,4-thiadiazol-5-yl)azepane-1-carboxamide], the IC50 with HeLa galactose cells is 21 nM; in assay [1] (5 h), 58 nM.

On to `Cc1nsc(NC(=O)N2CCC(=Cc3ccc(N4CCCC4)cc3F)CC2)n1` [Example 45, 4-[(2-fluoro-4-pyrrolidin-1-yl-phenyl)methylene]-N-(3-methyl-1,2,4-thiadiazol-5-yl)piperidine-1-carboxamide], for which the figures for the IC50 (in the assay with HeLa galactose cells; in assay [1] (5 h)) were 284 nM and 440 nM, respectively.

For `Cc1nsc(NC(=O)N2CCCC(=Cc3ccc(C(F)(F)F)cc3F)CC2)n1` [Example 116], the IC50 with HeLa galactose cells is 54 nM; in assay [1] (5 h) it was 150 nM.

Take `COc1ccc(CC2CCN(C(=O)Nc3nc(C)ns3)CC2)c(C)c1` [Example 13, 4-[(4-methoxy-2-methyl-phenyl)methyl]-N-(3-methyl-1,2,4-thiadiazol-5-yl)piperidine-1-carboxamide]: the results for the IC50 (with HeLa galactose cells; in assay [1] (5 h)) were 307 nM and 345 nM, respectively.

`Cc1nsc(NC(=O)N2CCC(Cc3ccc(Cl)cc3F)C(C)C2)n1` (single isomer, unassigned) [Example 84a, 4-[(4-chloro-2-fluoro-phenyl)methyl]-3-methyl-N-(3-methyl-1,2,4-thiadiazol-5-yl)piperidine-1-carboxamide]: the concentration for half-maximal inhibition (IC50) in the assay on HeLa galactose cells is 47 nM; in assay [1] it was 57 nM.

As to `Cc1nsc(NC(=O)N2CCC(=Cc3c(F)cc(N(C)CCO)cc3F)CC2)n1` [Example 158, 4-[[2,6-difluoro-4-[2-hydroxyethyl(methyl)amino]phenyl]methylene]-N-(3-methyl-1,2,4-thiadiazol-5-yl)piperidine-1-carboxamide], the results for the IC50 (with HeLa galactose cells; in assay [1] (5 h)) were 28 nM and 40 nM, respectively.

Turning to `Cc1nsc(NC(=O)N2CCC(=Cc3ccc(NCCCN)cc3F)CC2)n1` [Example 102], the values for the IC50 (in the assay with HeLa galactose cells; in assay [1] (5 h)) were 189 nM and 395 nM, respectively.

Consider `Cc1nsc(NC(=O)N2CC/C(=C/c3ccc(Cl)cc3F)CC2C(C)C)n1` (stereo not shown) [Example 87], for which the results for the IC50 (with HeLa galactose cells; in assay [1] (5 h)) were 262 nM and 335 nM, respectively.

For the compound `Cc1nsc(NC(=O)N2CCCC(Cc3c(F)cc(Cl)cc3F)CC2)n1` (stereo not shown) [Example 127, 4-[(4-chloro-2,6-difluoro-phenyl)methyl]-N-(3-methyl-1,2,4-thiadiazol-5-yl)azepane-1-carboxamide], the IC50 in the assay on HeLa galactose cells is 15 nM; in assay [1] (5 h) it was 35 nM.

On to `Cc1nsc(NC(=O)N2CCC(=Cc3ccc(OC(F)(F)F)cc3)CC2)n1` [Example 52], for which the values for the IC50 (in the assay on HeLa galactose cells; in assay [1] (5 h)) were 271 nM and 477 nM, respectively.

For the origin of these results see US20190142810A1, “MITOCHONDRIAL INHIBITORS FOR THE TREATMENT OF PROLIFERATION DISORDERS” (Basilea Pharmaceutica International AG, priority 2016, published 2019).
